These results are taken from patent US7709471B2, “Compounds” (AstraZeneca AB, priority 2006, dated 2010).

Broadly, the IC50 is the concentration that gives 50% inhibition.

The target of one test is recombinant Plk1 (Homo sapiens, UniProt P53350). The test is described as follows: In Vitro Plk1 Enzyme Assay (SPA, GST-Cdc25C phosphorylation). The test is classed as biochemical. The conditions noted are these: ATP 64 nM, 90 minutes, read-out: IC50 (Plk1 enzyme inhibition).
Test [1] has as its system human colon tumour cell line HT29. The experiment in a line: Cellular Assay (phosphohistone H3 Ser10 mitotic marker, HT29). It is filed as cell-based. To be noted: HT-29, 24 h, HT29 cells, read-out: IC50 (cellular assay, phosphohistone H3).
Method: Chromosome condensation in mitosis is accompanied by phosphorylation of histone H3 on serine 10.
After 24 hours, cells were fixed in 3.7% (v/v) formaldehyde then permeabilised and blocked for 10 minutes in 100 μl 0.5% (v/v) Triton X-100, 1% (w/v) bovine serum albumin (BSA) in phosphate buffered saline (PBS). […] The raw assay data were analysed by non-linear regression analysis and used to determine an IC50 value for each compound.

recombinant Plk1, sequence (P53350 whole entry): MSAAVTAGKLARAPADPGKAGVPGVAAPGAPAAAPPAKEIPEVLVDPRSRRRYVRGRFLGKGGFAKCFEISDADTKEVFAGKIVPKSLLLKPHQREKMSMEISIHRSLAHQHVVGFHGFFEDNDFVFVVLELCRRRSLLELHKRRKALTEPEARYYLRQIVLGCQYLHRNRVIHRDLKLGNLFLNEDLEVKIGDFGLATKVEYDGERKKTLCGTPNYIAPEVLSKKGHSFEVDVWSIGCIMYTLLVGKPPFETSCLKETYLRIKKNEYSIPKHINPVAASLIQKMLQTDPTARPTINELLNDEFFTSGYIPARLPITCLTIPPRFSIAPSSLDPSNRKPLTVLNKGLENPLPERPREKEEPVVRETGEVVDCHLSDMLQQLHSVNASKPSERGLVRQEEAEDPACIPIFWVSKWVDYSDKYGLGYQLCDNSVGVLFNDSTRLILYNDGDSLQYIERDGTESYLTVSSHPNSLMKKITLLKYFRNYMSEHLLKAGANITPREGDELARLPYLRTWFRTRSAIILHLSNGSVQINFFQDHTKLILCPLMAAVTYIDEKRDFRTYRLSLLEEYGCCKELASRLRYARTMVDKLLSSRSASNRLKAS

`CN(C)CC(C)(C)CNC(=O)c1ccc(Nc2ncc3c(n2)N(C2CCCC2)CCC(=O)N3)cc1` [Example 253, 4-[(6-cyclopentyl-3-oxo-2,6,8,10-tetrazabicyclo[5.4.0]undeca-8,10,12-trien-9-yl)amino]-N-(3-dimethylamino-2,2-dimethyl-propyl)benzamide]: the IC50 at recombinant Plk1 is less than 100000 nM; in test [1] it was less than 30000 nM.

For `COc1cc(C(=O)NCC(C)(C)CN(C)C)ccc1Nc1ncc2c(n1)N(C(C)C)CCC(=O)N2C` [Example 208, N-(3-dimethylamino-2,2-dimethyl-propyl)-3-methoxy-4-[(2-methyl-3-oxo-6-propan-2-yl-2,6,8,10-tetrazabicyclo[5.4.0]undeca-7,9,11-trien-9-yl)amino]benzamide], the IC50 (at recombinant Plk1; in test [1]) was less than 300 nM throughout.

Take `COc1cc(C(=O)NCCCN)ccc1Nc1ncc2c(n1)N(C1CCCC1)CCC(=O)N2C` [Example 42, N-(3-aminopropyl)-4-[(6-cyclopentyl-2-methyl-3-oxo-2,6,8,10-tetrazabicyclo[5.4.0]undeca-8,10,12-trien-9-yl)amino]-3-methoxy-benzamide]: the IC50 at recombinant Plk1 is less than 300 nM; in test [1] it was less than 30000 nM.

As for `CCN1CCC(NC(=O)c2cc(Cl)c(Nc3ncc4c(n3)N(C3CCCC3)CCC(=O)N4C)cc2F)CC1` [Example 323, 5-chloro-4-[(2-cyclopentyl-6-methyl-5-oxo-2,6,9,11-tetrazabicyclo[5.4.0]undeca-7,9,11-trien-10-yl)amino]-N-(1-ethyl-4-piperidyl)-2-fluoro-benzamide], the IC50 at recombinant Plk1 was less than 1000 nM; in test [1] it was less than 300 nM.

Regarding `COc1cc(C(=O)NC2CCCCC2)ccc1Nc1ncc2c(n1)N(CCN(C)C)CCC(=O)N2C` [Example 275, N-cyclohexyl-4-[[2-(2-dimethylaminoethyl)-6-methyl-5-oxo-2,6,9,11-tetrazabicyclo[5.4.0]undeca-7,9,11-trien-10-yl]amino]-3-methoxy-benzamide], the IC50 at recombinant Plk1 was less than 100000 nM; in test [1], less than 30000 nM.

As for `COc1cc(C(=O)NC2CCNCC2)ccc1Nc1ncc2c(n1)N(C1CCCC1)CCC(=O)N2C` [Example 41, 4-[(6-cyclopentyl-2-methyl-3-oxo-2,6,8,10-tetrazabicyclo[5.4.0]undeca-8,10,12-trien-9-yl)amino]-3-methoxy-N-(4-piperidyl)benzamide], the IC50 (on recombinant Plk1; in test [1]) was less than 300 nM each time.

Take `COc1cc(NCCN(C)C)ccc1Nc1ncc2c(n1)N(C1CCCC1)CCC(=O)N2C` [Example 107, 6-cyclopentyl-9-[[4-(2-dimethylaminoethylamino)-2-methoxy-phenyl]amino]-2-methyl-2,6,8,10-tetrazabicyclo[5.4.0]undeca-8,10,12-trien-3-one]: the IC50 on recombinant Plk1 is less than 1000 nM; in test [1], less than 30000 nM.

For the compound `COc1cc(C(=O)N[C@@H]2CCN(C)C2)ccc1Nc1ncc2c(n1)N(C1CCCC1)CCC(=O)N2C` [Example 62, 4-[(6-cyclopentyl-2-methyl-3-oxo-2,6,8,10-tetrazabicyclo[5.4.0]undeca-8,10,12-trien-9-yl)amino]-3-methoxy-N-[(3R)-1-methylpyrrolidin-3-yl]benzamide], the IC50 (at recombinant Plk1; in test [1]) was less than 300 nM in each case.

`CN1C(=O)CCN(C2CCCC2)c2nc(Nc3cccc(CCO)c3)ncc21` [Example 179, 6-cyclopentyl-9-[[3-(2-hydroxyethyl)phenyl]amino]-2-methyl-2,6,8,10-tetrazabicyclo[5.4.0]undeca-8,10,12-trien-3-one]: the IC50 at recombinant Plk1 is less than 1000 nM; in test [1], less than 30000 nM.

Take `CN1CCC(NC(=O)c2ccc(Nc3ncc4c(n3)N(C3CCCC3)CC(C)(C)C(=O)N4C)cc2)CC1` [Example 245, 4-[(2-cyclopentyl-4,4,6-trimethyl-5-oxo-2,6,9,11-tetrazabicyclo[5.4.0]undeca-7,9,11-trien-10-yl)amino]-N-(1-methyl-4-piperidyl)benzamide]: the IC50 (at recombinant Plk1; in test [1]) was less than 300 nM each time.

Regarding `COc1cc(C(=O)NCCN2CCN(C)CC2)ccc1Nc1ncc2c(n1)N(C1CCCC1)CCC(=O)N2C` [Example 34, 4-[(6-cyclopentyl-2-methyl-3-oxo-2,6,8,10-tetrazabicyclo[5.4.0]undeca-8,10,12-trien-9-yl)amino]-3-methoxy-N-[2-(4-methylpiperazin-1-yl)ethyl]benzamide], the IC50 (on recombinant Plk1; in test [1]) was less than 300 nM throughout.

Turning to `COc1cc(C(=O)NC2CCN(C)CC2)ccc1Nc1ncc2c(n1)N(c1ccccc1)CCC(=O)N2C` [Example 221, 3-methoxy-4-[(2-methyl-3-oxo-6-phenyl-2,6,8,10-tetrazabicyclo[5.4.0]undeca-8,10,12-trien-9-yl)amino]-N-(1-methyl-4-piperidyl)benzamide], the IC50 was less than 300 nM on recombinant Plk1 and less than 30000 nM in test [1].

`COc1cc(C(=O)Nc2ccccc2)ccc1Nc1ncc2c(n1)N(C1CCCC1)CCC(=O)N2C` [Example 99, 4-[(6-cyclopentyl-2-methyl-3-oxo-2,6,8,10-tetrazabicyclo[5.4.0]undeca-8,10,12-trien-9-yl)amino]-3-methoxy-N-phenyl-benzamide]: the IC50 is less than 100000 nM at recombinant Plk1 and less than 1000 nM in test [1].

For the compound `COc1cc(C(=O)NCCN2CCC(F)(F)CC2)ccc1Nc1ncc2c(n1)N(C1CCCC1)CCC(=O)N2C` [Example 37, 4-[(6-cyclopentyl-2-methyl-3-oxo-2,6,8,10-tetrazabicyclo[5.4.0]undeca-8,10,12-trien-9-yl)amino]-N-[2-(4,4-difluoro-1-piperidyl)ethyl]-3-methoxy-benzamide], the IC50 is less than 1000 nM at recombinant Plk1 and less than 300 nM in test [1].

As for `CCOc1cc(C(=O)N[C@H]2C[C@H]3CCC[C@@H](C2)N3C)ccc1Nc1ncc2c(n1)N(C(C)C)CCC(=O)N2C` [Example 283, 3-ethoxy-N-[(1S,5R)-9-methyl-9-azabicyclo[3.3.1]non-7-yl]-4-[(6-methyl-5-oxo-2-propan-2-yl-2,6,9,11-tetrazabicyclo[5.4.0]undeca-8,10,12-trien-10-yl)amino]benzamide], the IC50 (on recombinant Plk1; in test [1]) was less than 300 nM throughout.

For `CN1C(=O)CCN(C2CCCC2)c2nc(Nc3ccc(S(N)(=O)=O)cc3)ncc21` [Example 123, 4-[(6-cyclopentyl-2-methyl-3-oxo-2,6,8,10-tetrazabicyclo[5.4.0]undeca-8,10,12-trien-9-yl)amino]benzenesulfonamide], the results for the IC50 (at recombinant Plk1; in test [1]) were less than 100000 nM and less than 30000 nM, respectively.

Consider `COc1cc(C(=O)NC2C[C@H]3CCC[C@@H](C2)N3C)ccc1Nc1ncc2c(n1)N(C1CCCC1)CC1(CC1)C(=O)N2C` (stereo partly drawn) [Example 385, 4-(9′-cyclopentyl-5′-methyl-6′-oxo-5′,6′,8′,9′-tetrahydrospiro[cyclopropane-1,7′-pyrimido[5,4-b][1,4]diazepine]-2′-ylamino)-3-methoxy-N-[(1S,5R)-9-methyl-9-azabicyclo[3.3.1]non-7-yl]benzamide], for which the IC50 (on recombinant Plk1; in test [1]) was less than 300 nM in each case.

Turning to `COCCN1CC[C@@H](NC(=O)c2ccc(Nc3ncc4c(n3)N(C3CCCC3)CCC(=O)N4C)c(OC)c2)C1` [Example 328, 4-[(2-cyclopentyl-6-methyl-5-oxo-2,6,9,11-tetrazabicyclo[5.4.0]undeca-7,9,11-trien-10-yl)amino]-3-methoxy-N-[(3R)-1-(2-methoxyethyl)pyrrolidin-3-yl]benzamide], the IC50 (at recombinant Plk1; in test [1]) was less than 300 nM throughout.
